Data published in patent US8936939B2, “Hormone responsive tissue culture system and uses thereof” (Whitehead Institute for Biomedical Research, priority 2004, dated 2015).

Key:
BPLER xenografts = experiment: Hormone response of BPLER xenograft tumors in mice; type: in vivo; settings: estrogen treated animals vs control animals
Source text: In one respect, the histology of tumors arising from BPLER is very similar, if not identical to human ductal breast carcinoma. There is prominent luminal marker CK18 expression in BPLER cells and tumors. There is also prominent expression of E-cadherin, a marker indicating polarization of cells. Morphology wise, BPLER xenografts form glandular structures similar to those seen in human tumors. BPLER xenografts into mammary fat pads are invasive into adjacent skeletal muscle, and cause a desmoplastic reaction. BPLER xenografts also express progesterone receptors based on immunohistological staining of xenograft tumor samples. In addition, BPLER tumor sizes respond to estrogen treatment, in that xenograft tumors weighed about 70-100% more in estrogen treated animals than in control animals. BPLER tumors spread within the breast tissue of mice, and the multifocal growth is consistent with lymphovascular invasion and spread of tumors.
Subcutaneous tumorigenicity was tested in 6-8 week old immunocompromised athymic nude mice by injecting about 1×10^6 cells resuspended in 100 μl of 50% matrigel (EHSS). Nude mice were irradiated with 400 rad 12 hr prior to injections. Orthotopic tumorigenicity was tested by injecting about 1×10^6 cells into the mammary fat pad of Nod/Skid mice. All mice were sacrificed on day 70. […]

BPE cells = experiment: In vitro growth inhibition of BPE cells by estrogen antagonist; type: cell-based, human; settings: data not shown
Source text: (§1) Expression of CK18 and BER-Ep4 both confirm the adenocarcinoma features and exclude a squamous tumor. E-cadherin excludes a mesenchymal tumor. BPLER xenografts express progesterone receptor, which is consistent with the notion that BPLER xenografts are hormone-responsive. This was confirmed by experiments in which estrogen-progesterone treatment of mice increased subject tumor size approximately two-fold compared to untreated mice. […] Similar tumor xenografts from cells cultured in the MEGM media was negative for progesterone receptor expression and the in vitro growth inhibition of the cells with ICI 182,780 was less than 20% (data not shown).

BPEC cells = experiment: In vitro growth inhibition of BPEC cells by estrogen antagonist; type: cell-based, human; settings: data not shown
Source text: as §1

BPLE cells = experiment: In vitro growth inhibition of BPLE cells by estrogen antagonist; type: cell-based, human; settings: data not shown
Source text: as §1

[1] = test system: cells cultured in the MEGM media; experiment: In vitro growth inhibition of cells cultured in the MEGM media by estrogen antagonist; type: cell-based, human; settings: data not shown
Source text: as §1

estrogen
xenograft tumor weight increase in treated versus control animals (BPLER xenografts): 70-100%

C[C@]12CC[C@@H]3c4ccc(O)cc4C[C@@H](CCCCCCCCC[S+]([O-])CCCC(F)(F)C(F)(F)F)[C@H]3[C@@H]1CC[C@@H]2O (some centres unmarked) [ICI 182,780]
growth inhibition (BPE cells): > 80% | growth inhibition (BPEC cells): > 80% | growth inhibition (BPLE cells): > 80% | in vitro growth inhibition [1]: less than 20%
